In US8759366B2, “Aminopyrimidines as SYK inhibitors” (Merck Sharp & Dohme Corp., priority 2009, dated 2014):

Target: recombinant human SYK (GST-hSYK fusion protein) (Homo sapiens (Human), UniProt P43405)
Conditions: read-out: rhSYK Activity; Table 33B
Description: Homogeneous Time-Resolved Fluorescence (HTRF) Assay for the Recombinant Human SYK Enzyme:

For Cc1cc(Nc2nccc(C)n2)cc(-c2cnc(C3(O)CCC(C(=O)O)C(c4ccccc4C)C3)s2)c1 (stereo not drawn) [Example 33B-29], which IC50 is on record?
The IC50 was < 100 nM.

Cc1cc(Nc2nccc(C)n2)cc(-c2cnc(C3(O)CCC(C(=O)O)C(c4ccsc4)C3)s2)c1 (stereo not drawn) [Example 33B-30] was tested. Which IC50 did it give?
Its IC50 is 100 to 1000 nM.

For Cc1cc(Nc2nccc(C)n2)cc(-c2cnc(C3(O)CCC(C(=O)O)C(c4ccc(F)cc4)C3)s2)c1 (stereo not drawn) [Example 33B-31], which IC50 is on record?
Its IC50 is < 100 nM.

CCC1C(C)C(C(=O)O)CCC1(O)c1ncc(-c2cc(C)cc(Nc3nccc(C(F)(F)F)n3)c2)s1 (stereo not drawn) [Example 33B-40] was tested. Which IC50 did it give?
Its IC50 is < 100 nM.

Same assay, conditions: read-out: rhSYK Activity; Table 33C

With Cc1cc(Nc2nccc(C)n2)cc(-c2cnc(C3(O)C4CC5CC3CC(C(=O)O)(C5)C4)s2)c1 (stereo not drawn) [Example 33C-20] as the compound, how does the IC50 read?
The IC50 was < 100 nM.

Same assay, conditions: read-out: rhSYK Activity; Table 33D

How did the IC50 turn out when Cc1cc(Nc2nccc(C(F)(F)F)n2)cc(-c2cnc(C(C)(O)/C=C/C(C)(C)C(=O)O)s2)c1 (stereo not drawn) [Example 33D-5] was run?
The IC50 was < 100 nM.

For COC(=O)C(C)(C)/C=C/C(C)(O)c1ncc(-c2cc(C)cc(Nc3nccc(C(F)(F)F)n3)c2)s1 (stereo not drawn) [Example 33D-6], which IC50 is on record?
The IC50 was < 100 nM.

Which IC50 does the source give for Cc1cc(Nc2nccc(C(F)(F)F)n2)cc(-c2cnc(C(C)(O)c3ccc(NC(=O)CCC(=O)O)cc3)s2)c1 (stereo not drawn) [Example 33D-14] here?
The IC50 was < 100 nM.

How did the IC50 turn out when Cc1cc(Nc2nccc(C(F)(F)F)n2)cc(-c2cnc(C(C)(O)c3ccc(NC(=O)CCCC(=O)O)cc3)s2)c1 (stereo not drawn) [Example 33D-15] was run?
The IC50 was < 100 nM.

Which IC50 does the source give for Cc1cc(Nc2nccc(C(F)(F)F)n2)cc(-c2cnc(C(C)(O)c3ccc(C(=O)O)cc3)s2)c1 (stereo not drawn) [Example 33D-16] here?
Its IC50 is < 100 nM.

How did the IC50 turn out when COC(=O)c1ccc(C(C)(O)c2ncc(-c3cc(C)cc(Nc4nccc(C(F)(F)F)n4)c3)s2)cc1 (stereo not drawn) [Example 33D-17] was run?
The IC50 was 100 to 1000 nM.

Same assay, conditions: read-out: rhSYK Activity; Table 36A

How did the IC50 turn out when CCOC(=O)C1CCC(c2ncc(-c3cc(C)cc(Nc4nccc(C(F)(F)F)n4)c3)s2)CC1 (stereo not drawn) [Example 36A-2] was run?
The IC50 was 100 to 1000 nM.

Which IC50 does the source give for O=C(O)C1CCC(c2ncc(-c3cccc(Nc4nccc(C(F)(F)F)n4)c3)s2)CC1 (stereo not drawn) [Example 36A-4] here?
Its IC50 is < 100 nM.

How did the IC50 turn out when Cc1cc(Nc2nccc(C(F)(F)F)n2)cc(-c2cnc(C3CCCC(=O)C3)s2)c1 (stereo not drawn) [Example 36A-8] was run?
Its IC50 is < 100 nM.

With Cc1cc(Nc2nccc(C(F)(F)F)n2)cc(-c2cnc(C3CCCCC(=O)C3)s2)c1 (stereo not drawn) [Example 36A-10] as the compound, how does the IC50 read?
Its IC50 is < 100 nM.

For Cc1cc(Nc2nccc(C(F)(F)F)n2)cc(-c2cnc(C3CCC4(CC3)OCCO4)s2)c1 [Example 36A-12], which IC50 is on record?
Its IC50 is 100 to 1000 nM.

Same assay, conditions: read-out: rhSYK Activity; recombinant human SYK, HTRF assay; class symbols

COC(=O)NS(=O)(=O)N1CCC(O)(c2ncc(-c3cc(C)cc(Nc4nccc(OC)n4)c3)s2)CC1 [Example 54A-18] was tested. Which IC50 did it give?
Its IC50 is < 100 nM.

With Cc1cc(Nc2nccc(C(F)(F)F)n2)cc(-c2cnc(C3(O)CCN(C(=O)CC(=O)O)CC3)s2)c1 [Example 54A-26] as the compound, how does the IC50 read?
The IC50 was < 100 nM.

How did the IC50 turn out when CCCCNC(=O)N1CCC(O)(c2ncc(-c3cc(C)cc(Nc4nccc(C(F)(F)F)n4)c3)s2)CC1 [Example 54A-61] was run?
The IC50 was < 100 nM.

Which IC50 does the source give for Cc1ccc(NC(=O)N2CCC(O)(c3ncc(-c4cc(C)cc(Nc5nccc(C(F)(F)F)n5)c4)s3)CC2)cc1 [Example 54A-62] here?
Its IC50 is < 100 nM.

How did the IC50 turn out when Cc1cccc(NC(=O)N2CCC(O)(c3ncc(-c4cc(C)cc(Nc5nccc(C(F)(F)F)n5)c4)s3)CC2)c1 [Example 54A-63] was run?
Its IC50 is < 100 nM.

Which IC50 does the source give for Cc1cc(Nc2nccc(C(F)(F)F)n2)cc(-c2cnc(C3(O)CCN(C(=O)Nc4ccc(C)cc4C)CC3)s2)c1 [Example 54A-66] here?
Its IC50 is < 100 nM.

Cc1cc(Nc2nccc(C(F)(F)F)n2)cc(-c2cnc(C3(O)CCN(C(=O)Nc4cc(Cl)ccc4C)CC3)s2)c1 [Example 54A-68] was tested. Which IC50 did it give?
Its IC50 is < 100 nM.

For Cc1cc(Nc2nccc(C(F)(F)F)n2)cc(-c2cnc(C3(O)CCN(C(=O)Nc4ccc(Cl)cc4C)CC3)s2)c1 [Example 54A-69], which IC50 is on record?
The IC50 was < 100 nM.

For Cc1cc(Nc2nccc(C(F)(F)F)n2)cc(-c2cnc(C3(O)CCCN(CCF)CC3)s2)c1 (stereo not drawn) [Example 54A-82], which IC50 is on record?
Its IC50 is < 100 nM.

Cc1cc(Nc2nccc(C(F)(F)F)n2)cc(-c2cnc(C3(O)CCCN(CC(=O)O)CC3)s2)c1 (stereo not drawn) [Example 54A-83] was tested. Which IC50 did it give?
The IC50 was 100 to 1000 nM.

With Cc1cc(Nc2nccc(C(F)(F)F)n2)cc(-c2cnc(C3(O)CCCN(CCC(=O)O)CC3)s2)c1 (stereo not drawn) [Example 54A-84] as the compound, how does the IC50 read?
The IC50 was < 100 nM.
